# Marks after values point to notes of the source that are not given here.
# Tests used:
# Calvarial osteoblasts = experiment: Osteoblast alkaline phosphatase (ALP) activity; type: cell-based, rat; conditions: for ALP activity: calvarial osteoblasts, 10 days culture, FIG. 6
# Description: (§1) Neonatal rat calvarial cell cultures are prepared as described previously (Chattopadhyay et al., Endocrinology 145:3451-62, 2004) using slight modification. Briefly, for calvarial osteoblast cultures, frontal and parietal bones from neonatal Sprague-Dawley rats (1-3 day old) were digested in 0.1% collagenase/0.1% dispase in α-MEM to obtain 5 sequential digests. The second through fifth digests are combined and grown to confluence at 37° C. and 5% CO2 in air in α-MEM, supplemented with 10% fetal bovine serum (FBS), 2 mM glutamine, 100 U/ml penicillin-streptomycin, non-essential amino acid solution and sodium pyruvate. These osteoblast cells were further used to test thirteen pure compounds designated as 1-13. During the course of culture, pre-osteoblasts undergo three characteristic stages of osteoblasts with the expression of stage specific genes. These are: • Proliferation & differentiation: Days 1-12 • Genes—cbfa1, Osterix, Alkaline phosphatase, • Collagen-1 • Extra-cellular matrix maturation: Days 12-18 • Genes—Osteocalcin, Osteopontin, Fibronectin • Mineralization: Days 14-35 • Feature—Calcification (nodule formation) Measurement of Osteoblast Alkaline Phosphatase (ALP) Activity
# Calvarial osteoblasts cells were plated (1500 cells/well in 12 well plate) in the osteoblast differentiation medium and the culture was continued for 10 days with or without treatment with these compounds. This is the time when the ALP levels peak, and serves as an osteoblast differentiation marker. The cells at this point were washed twice with PBS and then plates were fixed by keeping them at −70° C. for 1 h, and then brought to room temperature to determine ALP activity. The rate of the reaction here is directly proportional to the enzyme activity, which itself is proportional to osteoblast differentiation. The O.D. was measured at 405 nm with a microplate reader.
# Osteoblasts = experiment: Osteoblast growth / toxicity (MTT); type: cell-based, rat; conditions: FIG. 8; for growth / proliferation of the osteoblastic cells: 1 pM to 1 μM, 48 h
# Description: as §1, with “Briefly,” for “Neonatal rat calvarial cell cultures are prepared as described previously (Chattopadhyay et al., Endocrinology 145:3451-62, 2004) using slight modification. Briefly,”
# Many isoflavonoids at micromolar concentrations are known to inhibit osteoblast cell growth. Osteoblasts were cultured in the absence or presence of compounds (dissolved in 0.01% DMSO final concentration) at various concentrations (1 pM to 1 μM) for 48 h. Cells receiving vehicle (0.01% DMSO) served as control. After incubation, the cells were washed with PBS. Then, cells were treated with MTT solution (5 mg/10 mL in DMEM devoid of Phenol Red) for 4 h. Formazon crystals formed were dissolved in DMSO and O.D. was taken at 540 nm.
# [1] = tested on: bone morphogenetic protein (BMP-2); experiment: In vivo osteogenic efficacy: BMP-2 expression in calvaria by qPCR; set-up: species or system rat; conditions: calvaria of 1- to 2-day-old rats, 5.0 mg·kg−1·day−1 s.c. for 3 consecutive days, fold change over vehicle/untreated, FIG. 7
# Excerpt: The results are expressed as fold change over untreated cells (FIG. 7).
# [2] = tested on: ovariectomized Balb/c mice; experiment: μCT trabecular microarchitecture after 8 weeks treatment of osteopenic OVx mice; type: in vivo, mouse; set-up: Tb. Th. / Tb. Sp.: unit not given here; conditions: for SMI / Tb. No. / Tb. Sp. / Tb. Th. / BV/TV: 8 weeks; for BV/TV: osteopenic OVx mice, mean ± S.D.
# Description: The study was conducted in accordance with current legislation on animal experiments [Institutional Animal Ethical Committee (IAEC)] at C.D.R.I. Balb/c mice weighing ˜25-30 gm were either bilaterally ovariectomized (OVx) or exposed to a sham surgical procedure. After ovariectomy, mice were left for 30 days for osteopenia to develop. Mice were individually housed at 21° C., in 12-h light:12-h dark cycles. All mice had excess to normal chow diet and water ad libitum. […], treatment in the form of gavage (1.0 mg and 5.0 mg/kg body weight) was given daily. Equal numbers of OVx and sham operated mice served as the control, and were given vehicle. At the end of 8 weeks, mice were euthanized. At autopsy, both femur and tibia were dissected and separated from adjacent tissue, cleaned, and used for μCT measurements.
# [3] = tested on: bone marrow stromal cells; experiment: Mineralization of bone marrow stromal cells of estrogen deficient rats; type: in vivo, rat; conditions: estrogen deficient (OVx) rats vs OVx rats treated with vehicle; estrogen 2.5 μg/kg
# [4] = tested on: ovariectomized (OVx) Sprague Dawley rats; experiment: μCT trabecular microarchitecture after 12 weeks treatment of OVx rats; type: in vivo, rat; conditions: for SMI / Tb. No. / Tb. Sp. / Tb. Th.: estradiol 2.5 μg·kg−1·day−1; for BV/TV: estradiol 2.5 μg·kg−1·day−1, mean ± S.D.
# Description: The study was conducted in accordance with current legislation on animal experiments [Institutional Animal Ethical Committee (IAEC)] at C.D.R.I. […] Sprague Dawley rats weighing 180-200 gm were either bilaterally ovariectomized (OVx) or exposed to a sham surgical procedure. All rats were individually housed at 21° C., in 12-h light:12-h dark cycles. All rats had excess to normal chow diet and water ad libitum. After OVx, the rats were left for 12 weeks to develop osteopenia. […] Equal numbers of OVx and sham operated rats served as the control, and were given vehicle (20% ethanol). The rats were weighed each week. […] After twenty-four hours of fasting urine samples were collected in fresh containers, centrifuged at 2000 rpm at room temperature and stored at -20° C. until analyzed. Rats were then euthanized. At autopsy, blood samples were collected by cardiac puncture in tubes, and serum samples collected and frozen until analysis. Uteri were carefully excised, gently blotted, weighed, and fixed for histology and histomorphometry. About 5 mm pieces from the middle segment of each uterus were dehydrated in ascending grades of ethanol, cleared in xylene, and embedded in paraffin wax using standard procedures. Representative transverse sections (5 μm) were stained with H&E stain. Photomicrographs of sections were obtained using a Leica DC 300 camera and Leica IM50 Image Acquisition software fitted to a Leica DMLB microscope. Histomorphometric measurements were done using Leica Qwin-Semiautomatic image Analysis software. μCT (both 2-D and 3-D) determination of excised bones was carried out using the Sky Scan 1076 μCT scanner (Aartselaar, Belgium) using the cone-beam reconstruction software version 2.6 based on the Feldkamp algorithm (Skyscan). The bone marrow was harvested for ex vivo experiments. Both femora were dissected and separated from adjacent tissue, cleaned, and used for RNA isolation and also micro measurements. Trabecular response to A-4744/[…] treatment of OVx rats was quantified at the femur epiphysis and tibial proximal metaphysis.
# [5] = femur, OVx mice, 1 mg · kg^-1 · day^-1
# [6] = femur, OVx mice, 5 mg · kg^1 · day^1
# [7] = tibia, OVx mice, 1 mg · kg^-1 · day^-1
# [8] = tibia, OVx mice, 5 mg · kg^1 · day^1
smiles,measurement,setting,value
"COc1ccc(-c2coc3cc(O[C@@H]4OC(CO)[C@@H](O)[C@H](O)C4O)cc(O)c3c2=O)cc1 (stereo partly drawn) [Compound 6, Biochanin 7-O-glycoside]",ALP activity,Calvarial osteoblasts,significantly increased
same,growth / proliferation of the osteoblastic cells,Osteoblasts,proliferation
same,melting point,,206 to 208 °C
COc1cc(OC)c(-c2coc3cc(O[C@@H]4OC(COC5OCC(O)(CO)C5O)[C@@H](O)C(O)C4O)c(OC)c(O)c3c2=O)cc1OC (stereo partly drawn) [Compound 10],ALP activity,Calvarial osteoblasts,significantly increased
same,"increase in osteoblast differentiation over the control, assessed by ALP production","Calvarial osteoblasts; over the control, listed as Caviunin 7-O-[β-D-apiofuranosyl-(1→6)-β-D-glucopyranoside]",> 1.0 fold
same,increase in BMP-2 expression,[1],15 fold
same,growth / proliferation of the osteoblastic cells,Osteoblasts,proliferation
same,toxicity to the cells,"Osteoblasts; osteoblasts, 1 pM to 1 μM for 48 h, vs vehicle control",not toxic
same,trabecular bone in tibia metaphysis,[2]; OVx mice,significantly restored
same,Tb.sp and SMI,[2]; femur epiphysis of OVx mice compared to OVx+vehicle mice,increased
same,"BV/TV, Tb.Th and Tb.N",[2]; femur epiphysis of OVx mice compared with OVx+vehicle group,increased
same,SMI,[2]; [5],1.992 ± 0.0382
same,Tb. No.,[2]; [5],0.588 ± 0.034
same,Tb. Sp.,[2]; [5],0.529 ± 0.022
same,Tb. Th.,[2]; [5],0.069 ± 0.002
same,SMI,[2]; [6],1.615 ± 0.0434***^a
same,Tb. No.,[2]; [6],0.759 ± 0.061***^b
same,Tb. Sp.,[2]; [6],0.502 ± 0.023 ^
same,Tb. Th.,[2]; [6],0.070 ± 0.001 ^
same,BV/TV,"[2]; femur, 1 mg · kg^-1 · day^-1",4.10 ± 0.253 %
same,BV/TV,"[2]; femur, 5 mg · kg^1 · day^1",5.54 ± 0.739***^a %
same,SMI,[2]; [7],2.46 ± 0.051
same,Tb. No.,[2]; [7],0.222 ± 0.018
same,Tb. Sp.,[2]; [7],0.690 ± 0.013
same,Tb. Th.,[2]; [7],0.064 ± 0.0015
same,SMI,[2]; [8],2.43 ± 0.072
same,Tb. No.,[2]; [8],0.266 ± 0.014
same,Tb. Sp.,[2]; [8],0.671 ± 0.040
same,Tb. Th.,[2]; [8],0.065 ± 0.001
same,BV/TV,"[2]; tibia, 1 mg · kg^-1 · day^-1",1.67 ± 0.086 %
same,BV/TV,"[2]; tibia, 5 mg · kg^1 · day^1",1.701 ± 0.120 %
same,mineralization of the bone marrow stromal cells,[3],significantly greater mineralization
same,melting point,,135 to 138 °C
"C[C@]12CC[C@@H]3c4ccc(O)cc4CC[C@H]3[C@@H]1CC[C@@H]2O [ESTRADIOL (E2), Estradiol]",SMI,[4]; femur,2.41 ± 0.13
same,Tb. No.,[4]; femur,0.725 ± 0.024
same,Tb. Sp.,[4]; femur,0.86 ± 0.004
same,Tb. Th.,[4]; femur,0.78 ± 0.01
same,BV/TV,[4]; femur,59.23 ± 30.19 %
same,SMI,[4]; tibia,2.24 ± 0.021
same,Tb. No.,[4]; tibia,0.30 ± 0.02
same,Tb. Sp.,[4]; tibia,1.29 ± 0.029
same,Tb. Th.,[4]; tibia,0.10 ± 0.004
same,BV/TV,[4]; tibia,3.04 ± 0.24 %
same,mineralization of the bone marrow stromal cells,[3],unable to increase mineralization
"COc1cc(-c2coc3cc(O)cc(O)c3c2=O)ccc1O [Compound 3, Pratensein or 3′-methoxygenistein]",ALP activity,Calvarial osteoblasts,significantly increased
same,growth / proliferation of the osteoblastic cells,Osteoblasts,proliferation
"O=c1c(-c2ccc(O)cc2)coc2cc(O)cc(O)c12 [Compound 4, Genstein]",ALP activity,Calvarial osteoblasts,significantly increased
same,increase in BMP-2 expression,[1],5 fold
same,growth / proliferation of the osteoblastic cells,Osteoblasts,proliferation
"COc1ccc(-c2coc3cc(O)cc(O)c3c2=O)cc1 [Compound 1, Biochanin A]",ALP activity,Calvarial osteoblasts,significantly increased
same,growth / proliferation of the osteoblastic cells,Osteoblasts,proliferation
